{
  "source": "paper PMC10707934",
  "about": "“Design and Synthesis of Novel α-Methylchalcone Derivatives, Anti-Cervical Cancer Activity, and Reversal of Drug Resistance in HeLa/DDP Cells” (Molecules, 2023)",
  "format_in_all_cases": "cell-based, human",
  "key": {"P-gp": {"system": "P-gp", "assay": "Western blot, P-gp expression in HeLa/DDP cells", "details": "48 h, 0.25, 0.5, or 1 μM"}, "[1]": {"system": "α-/β-tubulins in HeLa cells", "assay": "Western blot of polymerized and dissociated α-/β-tubulins, HeLa", "details": "24 h, versus control", "description": "HeLa cells were cultured in 60 mm Petri dishes at a density of 1.0 × 10^6 cells per dish and treated with 0.1% DMSO (vehicle), positive control chalcone (20 μM), and different concentrations of compound 3k (2.5, 5, and 10 μM), respectively. Following a 24 and 48 h incubation period, the cells were harvested via centrifugation and subsequently washed twice with PBS that had been chilled to 0 °C. Next, the cells were homogenized using RIPA lysis buffer (Solarbio, Beijing, China) and supplemented with 1% PMSF (MP Biomedicals, 0754-25G, CAS:329-98-6, Santa Ana, CA, USA) and 1% mixed phosphatase inhibitor (Solarbio, Beijing, China). The resulting lysates were then incubated on ice for 30 min, intermittently vortexed every 5 min, and subsequently centrifuged at 12,000 rpm for 20 min to collect the supernatants.\nSubsequently, the protein concentrations were determined utilizing a BCA Protein Assay Kit (Solarbio, China). An equivalent quantity of the proteins (12 μg) was fractionated via 8–12% sodium dodecyl sulfate–polyacrylamide gel electrophoresis (SDS-PAGE) and transferred onto nitrocellulose membranes (Amersham Biosciences, Amersham, UK). Following this, the membranes were obstructed with 5% nonfat dried milk in TBS containing 1% Tween-20 for a duration of 2 h at ambient temperature and were subjected to overnight incubation with specific primary antibodies (CST, Boston, MA, USA) at 4 °C. Following three washes in TBST, the membranes were subjected to incubation with the suitable HRP-conjugated secondary antibodies at ambient temperature for a duration of 2 h. The blots were subsequently visualized using enhanced chemiluminescence (Biosharp, Shanghai, China) and detected utilizing a PE 0723 imager (ProteinSimple, Silicon Valley, CA, USA). Each experiment was conducted in triplicate at minimum and analyzed employing Image J software (V1.8.0.112). β-actin(ab198991) rabbit mAb, goat anti-rabbit IgG (H + L) HRP—#S0001 (Affinity). Bax (ab289364), Bcl-2 (ab218123), MDR1/ABCB1 (E1Y7B) rabbit mAb #13342 (CST).\nPolymerized and free microtubule proteins were extracted using the methods described in references, respectively. Following drug intervention, the cells were subjected to two washes with preheated microtubule protein buffer MTSB at 37 °C. Subsequently, 70 μL of MTSB was added, and the cells were lysed for 10 min at 37 °C in a constant temperature chamber shielded from light. The cells were then scraped with a spatula and centrifuged at 14,000 r/min for 10 min at room temperature. The resulting supernatant, which represented the free state microtubule protein suspension, was subsequently removed. The remaining precipitate was treated with RIPA lysis solution, followed by lysis on ice for a duration of 30 min. Subsequently, centrifugation was performed at a temperature of 4 °C and a speed of 12,000 revolutions per minute for a duration of 20 min. The resulting supernatant was collected as a suspension of polymerized microtubule protein. The Western blotting procedure was the same as in Section 3.3.4. α-Tubulin (DM1A) Mouse mAb#3873 (CST), β-Tubulin (D2N5G) Rabbit mAb #15115 (CST), CoraLite488-conjugated Goat Anti-Mouse lgG(H+L) (Proteintech); CoraLite488-conjugated Goat Anti-Rabbit lgG(H+L) (Proteintech); β-actin(ab198991) rabbit mAb, Goat Anti-Mouse IgG H&L (HRP) (ab6789); Goat anti-Rabbit IgG (H+L) HRP—#S0001 (Affinity)."}, "HeLa cells": {"system": "HeLa cells", "assay": "Transwell migration assay, HeLa", "details": "24 h, control 1176", "description": "HeLa (5 × 10^4 cells) was suspended in 200 μL of FBS-free medium. The top chamber contained the vehicle and various concentrations of compound 3k (2.5, 5, and 10 μM), cisplatin (20 μM) and chalcone (20 μM). The lower chamber was filled with 600 μL of medium containing 10% FBS. After incubating at 37 °C for 24 h, the cells on the top side of the Transwell membrane were removed with a cotton tip. Cells were fixed and stained with 4% paraformaldehyde (LEAGENE BIOTECHNOLOGY, Cat:DF0135, Lot:0823A23, Zhongguancun, Haidian District, Beijing, China) and 0.1% crystal violet solutions (Leagene Biotechnology, Cat:DZ0055, Lot:0508A23, Zhongguancun, Haidian District, Beijing, China) for 30 min to fix cells trapped on the perforated side of the membrane."}},
  "data": [
    {"smiles": "COc1ccc(/C=C(\\C)C(=O)c2ccc(Cl)c(Cl)c2)cc1OC", "note": "[Compound 3k, (E)-1-(3,4-Dichlorophenyl)-3-(3,4-dimethoxyphenyl)-2-methylprop-2-en-1-one]", "values": [
      {"measurement": "expression of P-gp", "setting": "P-gp", "value": "remained unchanged"},
      {"measurement": "expression of dissociated state α and β microtubule proteins", "setting": "[1]; 3k 4 μM, colchicine 2 μM, paclitaxel 2.0 μM", "value": "significant increase"},
      {"measurement": "expression of α and β microtubule proteins in the polymerized state", "setting": "[1]; 3k 2 and 4 μM, colchicine and paclitaxel 2.0 μM", "value": "significant decrease"},
      {"measurement": "number of migrated cells", "setting": "HeLa cells; 2.5 μM", "value": 518},
      {"measurement": "number of migrated cells", "setting": "HeLa cells; 5 μM", "value": 388},
      {"measurement": "number of migrated cells", "setting": "HeLa cells; 10 μM", "value": 166}
    ]}
  ]
}
